According to patent EP4781986A1, “PHARMACEUTICAL COMPOSITION HAVING IMPROVED PHARMACOKINETIC PROPERTIES” (Sichuan Purity Pharmaceutical Co., Ltd., priority 2023, dated 2025):
Read-outs that look alike come from different tables or passages of the source.

What was measured:
[1] = stability test in liver microsomes (rat); format: in vitro ADME; details: Rat liver microsomes
Method: (§1) The stability of the compound of the present invention in liver microsomes of rat, monkey and human was determined. Tested compounds of the present invention were the compounds in Examples 6 and 8 , and a control drug was Zavegepant.
(§2) 3.2 An appropriate amount of liver microsome solution was transferred into a 1 mL 96-deep-well plate, added with a tested drug liquid (or a probe substrate solution), and pre-incubated in a thermal mixer at 37°C for 5 minutes. Two parts of mixed solutions were taken out from the system and added with 1×PBS to replace NADPH, and the mixed solutions were taken out at 0 and 60 minutes respectively, and added with methanol (containing an internal standard) to terminate the reaction. In the remaining mixed system, each well was added with NADPH to start the reaction. In the tested substance group, mixed solutions were taken out from the system at 0, 5, 15, 30, 45 and 60 minutes, and in the control group, mixed solutions were taken out from the system at 0, 30 and 60 minutes, and the mixed solutions were added methanol (containing an internal standard) to terminate the reaction. All samples of the terminated reaction were mixed evenly and centrifuged in a centrifuge at 3800 rpm for 15 minutes, and the supernatant was taken for LC-MS/MS analysis.
(§3) A peak area was determined by an extracted ion chromatogram. A slope value k was determined by linear regression of a remaining percentage of a parent drug relative to a natural logarithm of an incubation time curve. According to the slope, in-vitro half-life periods (t1/2) were respectively calculated, and in-vitro intrinsic clearance rates (CLint, represented by µL/min/mg protein) were calculated. Calculation formulas were as follows: t1/2 = ln2/k = 0.693/k; and CLint = 0.693/t1/2 /liver microsome protein concentration [formula]

[2] = stability test in liver microsomes (human); format: in vitro ADME; details: Human liver microsomes, 60 min
Method: as §1, §2, §3

Plasma of SD rat = experiment: plasma protein binding rate test, equilibrium dialysis (rat); format: in vitro ADME; details: 1 µM, 37°C, 6 hours
Method: (§4) Protein binding rates of the compound of the present invention in plasma of rat, monkey and human were determined by an equilibrium dialysis method. Tested compounds of the present invention were the compounds in Examples 6 and 8.
(§5) 3.1 A dry dialysis membrane was rinsed with ultrapure water for 2-3 times, and then soaked in a phosphate buffer for 1 hour for later use. Polytetrafluoroethylene module was soaked in 20% ethanol for 30 minutes, and then surface moisture was dried with dust-free paper for later use. The pretreated dialysis membrane was assembled into a dialysis plate according to the product specification, and one side (receptor compartment) of an osmotic membrane in each dialysis well was added with 100 µL of receptor fluid (100 mM phosphate buffer solution plus 0.002% Tween 80).
(§6) 3.2 The plasma was put into a centrifuge tube, a working solution of a tested substance was added into the plasma, wherein a final concentration was 1 µM, and the mixture was turned upside down and mixed evenly (this step was carried out in ice bath). 20 µL of drug-containing plasma each was taken, and was respectively transferred to a 96-well sample plate according to two parts in parallel, and stored in a refrigerator at -20°C as a T0 sample.
(§7) 3.3 Another 100 µL of the above drug-containing plasma was transferred to the other side (sample compartment) of the membrane in the dialysis device according to two parts in parallel, and incubated under vibration at a constant temperature of 37°C for 6 hours. […]
(§8) A plasma protein binding rate and a recovery rate of the compound in plasma were calculated by the following formulas: dissociation percentage (%) = CB /CA; [formula] plasma protein binding rate (fb%) = 1−dissociation percentage (%); [formula] recovery rate (%) = (CB+CA)/CT0 [formula] wherein CB was a concentration of the compound in the receptor fluid after equilibrium dialysis; CA was a concentration of the compound in the drug-containing plasma after equilibrium dialysis; and CT0 was an initial concentration of the compound in plasma.

[3] = tested on: Plasma of cynomolgus monkey; experiment: plasma protein binding rate test, equilibrium dialysis (monkey); format: in vitro ADME; details: 1 µM, 37°C, 6 hours
Method: as §4, §5, §6, §7, §8

[4] = PK properties in monkeys with or without alkyl glycoside, intravenous route and nasal spray; format: in vivo, cynomolgus monkey; details: for AUC / bioavailability / Cmax / half-life / Tmax / Vd: cynomolgus monkey, plasma; for AUC: read-out: Area under curve AUC; for bioavailability: read-out: Bioavailability F%; for Cmax: read-out: Concentration to peak Cmax; for half-life: read-out: Half-life period t1/2 (converted); for Tmax: read-out: Time to peak Tmax; for Vd: read-out: Volume of distribution steady-state Vss; for Tmax(DDM 0.2%)/ Tmax(DDM 0%) / onset time (Tmax) shortened by: monkeys, intranasal; for Tmax(DDM 0.2%)/ Tmax(DDM 0%): 0.2% DDM vs without DDM; for onset time (Tmax) shortened by: with vs without alkyl glycoside
Method: Species: cynomolgus monkey, male, 2-5 kg. Source: Ankai Yibo (Zhanjiang) Biotechnology Co., Ltd., Laboratory Animal Production License No.: SCXK (Yue) 2019-0046. Quantity: 3 cynomolgus monkeys were intravenously administered and 3 cynomolgus monkeys were administered by a nasal spray.
2.1 An appropriate amount of drug was accurately weighed and added with 50 mM succinate buffer (diluted with D5W, pH=5-6), and mixed evenly and dissolved fully in an ultrasonic and vortexed mode to obtain a 0.5 mg/mL drug solution for intravenous administration.
(§9) 2.2 An appropriate amount of drug was accurately weighed and added with a solvent 1: 50 mM succinate buffer (diluted with pure water, pH=5-6), and mixed evenly and dissolved fully in an ultrasonic and vortexed mode to obtain a 20 mg/mL drug solution, which was put into a nasal spraying device for administration by the nasal spray, 100 µL/spray.
as §9, with “2.3” for “2.2”, “2:” for “1:”, “(pH=5-6) containing 0.2% dodecyl-β-D-maltoside,” for “(diluted with pure water, pH=5-6),”
5 minutes, 10 minutes, 15 minutes, 0.5 hour, 1 hour, 2 hours, 4 hours, 6 hours, 8 hours, 10 hours, 12 hours and 24 hours after administration.
Blood was collected through a saphenous vein or a cephalic vein, about 0.6 mL of each sample was collected, EDTA-K2 was used for anticoagulation, the collected blood sample was placed on ice, and plasma was centrifugally separated within 2 hours (at 2000 g and 2-8°C for 10 minutes). The collected plasma samples were stored in a refrigerator at -80°C before analysis, and the remaining plasma samples after analysis were continuously stored in the refrigerator at -80°C for temporary storage.
A concentration of a specified compound in plasma was determined by LC-MS/MS, and main pharmacokinetic parameters were calculated by a Winnolin 8.3 non-compartmental model. When the pharmacokinetic parameters were calculated, BLQ before Cmax (comprising "No peak") was calculated as 0; and BLQ (comprising "No peak") after Cmax was excluded from the calculation.

[5] = 1 mg/kg, cynomolgus monkeys, IN@1 mg/kg (Solvent 1, no DDM)
[6] = 1 mg/kg, cynomolgus monkeys, IN@1 mg/kg (Solvent 2, 0.2% dodecyl-β-D-maltoside)
[7] = iv, 0.5 mg/kg, cynomolgus monkeys, IV@0.5 mg/kg
[8] = cynomolgus monkeys, IV@0.5 mg/kg
[9] = male, other: intranasal (nasal spray), 1 mg/kg, cynomolgus monkeys, IN@1 mg/kg (Solvent 1, no DDM)
[10] = male, other: intranasal (nasal spray), 1 mg/kg, cynomolgus monkeys, IN@1 mg/kg (Solvent 2, 0.2% dodecyl-β-D-maltoside)
[11] = male, other: intranasal (nasal spray), cynomolgus monkeys, IN@1 mg/kg (Solvent 2, 0.2% dodecyl-β-D-maltoside)
[12] = male, other: nasal spray (intranasal), cynomolgus monkeys, IN@1 mg/kg (Solvent 1, no DDM)
[13] = male, cynomolgus monkeys, IV@0.5 mg/kg

Compound: Cc1cc(C[C@@H](NC(=O)N2CCC(c3cc4c([nH]c3=O)SCCC4)CC2)C(=O)N2CCN(C3CCN(C)CC3)CC2)cc2cn[nH]c12 [Example 6, (R)-N-(3-(7-methyl-1H-indazole-5-yl)-1-(4-(1-methylpiperidine-4-yl)piperazine-1-yl)-1-oxopropan-2-yl)-4-(7-oxo-3,4,7,8-tetrahydro-2H-thiopyrano[2,3-b]pyridine-6-yl)piperidine-1-formamide]
- CLint [1]: 2.4 µL/min/mg
- % remaining (60 min) [1]: 91.5%
- % remaining (60 min) [2]: 131%
- fb (%) (Plasma of SD rat): 90.0%
- fb (%) [3]: 61.3%
- AUC [4, 5]: 43.2 ng·h/mL
- bioavailability [4, 5]: 1.99%
- Cmax [4, 5]: 12.7 ng/mL
- half-life [4, 5]: 540 min
- Tmax [4, 5]: 60 min
- AUC [4, 6]: 780 ng·h/mL
- bioavailability [4, 6]: 29.8%
- Cmax [4, 6]: 663 ng/mL
- half-life [4, 6]: 334 min
- Tmax [4, 6]: ~10.2 min
- AUC [4, 7]: 1140 ng·h/mL
- Cmax [4, 7]: 3200 ng/mL
- half-life [4, 7]: 299 min
- Vd [4, 8]: 0.652 L/kg
- Tmax(DDM 0.2%)/ Tmax(DDM 0%) [4]: 16.7%
- onset time (Tmax) shortened by [4]: 83.3%

Compound: Cc1cc(C[C@@H](NC(=O)N2CCC(c3cc4c([nH]c3=O)SCC4)CC2)C(=O)N2CCN(C3CCN(C)CC3)CC2)cc2cn[nH]c12 [Example 8, (R)-N-(3-(7-methyl-1H-indazole-5-yl)-1-(4-(1-methylpiperidine-4-yl)piperazine-1-yl)-1-oxopropan-2-yl)-4-(6-oxo-2,3,6,7-tetrahydrothieno[2,3-b]pyridine-5-yl)piperidine-1-formamide]
- % remaining (60 min) [1]: 90.7%
- % remaining (60 min) [2]: 85.8%
- fb (%) (Plasma of SD rat): 69.4%
- fb (%) [3]: 47.7%
- Apparent clearance CL [4, 8]: 9.27 mL/min/kg
- bioavailability [4, 9]: 2.5%
- Tmax [4, 9]: 60 min
- bioavailability [4, 10]: 26.4%
- Tmax [4, 10]: ~10.2 min
- AUC [4, 11]: 412 ng·h/mL
- Cmax [4, 11]: 401 ng/mL
- half-life [4, 11]: 295 min
- AUC [4, 12]: 46.1 ng·h/mL
- Cmax [4, 12]: 13.4 ng/mL
- half-life [4, 12]: 335 min
- AUC [4, 13]: 924 ng·h/mL
- Cmax [4, 13]: 2280 ng/mL
- half-life [4, 13]: 299 min
- Vd [4, 13]: 0.738 L/kg
- Tmax(DDM 0.2%)/ Tmax(DDM 0%) [4]: 16.7%
- onset time (Tmax) shortened by [4]: 83.3%
